PMC4490784, “Compensatory induction of MYC expression by sustained CDK9 inhibition via a BRD4-dependent mechanism” (eLife, 2015)

Columns and labels:
Experiment in all cases: KINOMEscan binding assay
ACVR1B = target: T1, ACVR1B (Homo sapiens, UniProt P36896); details: read-out: % Retention on Solid Support
T1 construct: purchased DiscoveRx KINOMEscan
Method in brief: (§1)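 Kinome-wide competition binding assay (active site-directed), i-CDK9 tested at 1 µM and 10 µM, >400 targets.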

MEK3 = target: T2, MEK3 (Homo sapiens, UniProt P46734); details: read-out: % Retention on Solid Support
T2 construct: purchased DiscoveRx KINOMEscan
T2 sequence (P46734 whole entry): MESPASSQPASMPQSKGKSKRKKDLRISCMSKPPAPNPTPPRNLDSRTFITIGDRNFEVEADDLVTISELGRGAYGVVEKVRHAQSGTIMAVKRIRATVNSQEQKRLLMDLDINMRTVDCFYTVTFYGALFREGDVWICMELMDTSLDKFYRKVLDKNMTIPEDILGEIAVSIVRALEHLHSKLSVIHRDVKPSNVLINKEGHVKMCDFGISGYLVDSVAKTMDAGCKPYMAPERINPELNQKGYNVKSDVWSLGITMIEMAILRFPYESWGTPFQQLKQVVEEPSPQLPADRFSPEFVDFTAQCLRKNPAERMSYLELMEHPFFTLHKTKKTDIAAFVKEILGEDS
Method in brief: as §1

ERK3 = target: T3, ERK3 (Homo sapiens, UniProt Q16659); details: read-out: % Retention on Solid Support
T3 construct: purchased DiscoveRx KINOMEscan
Method in brief: as §1

RIPK2 = target: T4, RIPK2 (Homo sapiens, UniProt O43353); details: read-out: % Retention on Solid Support
T4 construct: purchased DiscoveRx KINOMEscan
T4 sequence (O43353 whole entry): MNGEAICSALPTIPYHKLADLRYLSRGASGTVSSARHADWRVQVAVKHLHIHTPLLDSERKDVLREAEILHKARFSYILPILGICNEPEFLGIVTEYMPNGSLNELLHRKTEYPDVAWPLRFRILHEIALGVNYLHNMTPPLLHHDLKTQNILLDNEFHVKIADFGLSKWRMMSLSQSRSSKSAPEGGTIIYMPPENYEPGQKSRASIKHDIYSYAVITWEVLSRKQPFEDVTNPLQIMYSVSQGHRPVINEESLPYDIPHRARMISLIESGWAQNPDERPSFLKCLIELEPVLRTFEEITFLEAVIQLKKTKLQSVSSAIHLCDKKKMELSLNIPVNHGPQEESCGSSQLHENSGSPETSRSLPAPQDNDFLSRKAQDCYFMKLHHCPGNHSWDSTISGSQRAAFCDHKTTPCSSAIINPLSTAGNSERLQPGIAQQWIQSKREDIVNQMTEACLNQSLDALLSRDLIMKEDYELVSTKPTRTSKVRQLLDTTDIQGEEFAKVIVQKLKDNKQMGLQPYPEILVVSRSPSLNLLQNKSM
Method in brief: as §1

MAK = target: T5, MAK (Homo sapiens, UniProt P20794); details: read-out: % Retention on Solid Support
T5 construct: purchased DiscoveRx KINOMEscan
T5 sequence (P20794 whole entry): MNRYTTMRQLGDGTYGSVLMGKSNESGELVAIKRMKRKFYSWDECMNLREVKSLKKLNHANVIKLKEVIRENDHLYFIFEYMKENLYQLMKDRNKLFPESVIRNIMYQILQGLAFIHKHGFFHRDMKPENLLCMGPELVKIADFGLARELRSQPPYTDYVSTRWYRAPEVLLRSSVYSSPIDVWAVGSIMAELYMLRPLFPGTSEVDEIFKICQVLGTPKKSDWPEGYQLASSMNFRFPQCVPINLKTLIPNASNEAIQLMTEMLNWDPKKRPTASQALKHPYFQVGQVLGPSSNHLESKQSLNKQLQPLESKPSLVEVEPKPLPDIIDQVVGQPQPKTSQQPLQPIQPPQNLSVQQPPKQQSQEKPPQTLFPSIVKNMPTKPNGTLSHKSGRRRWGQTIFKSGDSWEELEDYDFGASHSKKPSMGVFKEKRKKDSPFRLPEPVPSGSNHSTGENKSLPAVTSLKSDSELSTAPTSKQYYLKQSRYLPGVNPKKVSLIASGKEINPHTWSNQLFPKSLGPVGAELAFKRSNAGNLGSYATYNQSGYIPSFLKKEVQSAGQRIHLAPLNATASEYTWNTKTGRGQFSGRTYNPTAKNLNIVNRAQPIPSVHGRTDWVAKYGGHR
Method in brief: as §1

EPHB3 = target: T6, EPHB3 (Homo sapiens, UniProt P54753); details: read-out: % Retention on Solid Support
T6 construct: purchased DiscoveRx KINOMEscan
Method in brief: as §1

TYRO3 = target: T7, TYRO3 (Homo sapiens, UniProt Q06418); details: read-out: % Retention on Solid Support
T7 construct: purchased DiscoveRx KINOMEscan
Method in brief: as §1

IRAK4 = IRAK4 (Homo sapiens, UniProt Q9NWZ3); details: 1 µM i-CDK9
Method in brief: as §1

DMPK = target: T8, DMPK (Homo sapiens, UniProt Q09013); details: read-out: % Retention on Solid Support
T8 construct: purchased DiscoveRx KINOMEscan
Method in brief: as §1

TAOK1 = target: T9, TAOK1 (Homo sapiens, UniProt Q7L7X3); details: read-out: % Retention on Solid Support
T9 construct: purchased DiscoveRx KINOMEscan
Method in brief: as §1

KIT(L576P) = target: T10, KIT(L576P) (Homo sapiens, UniProt P10721, L576P); details: read-out: % Retention on Solid Support
T10 construct: purchased DiscoveRx KINOMEscan
Method in brief: as §1

LIMK2 = target: T11, LIMK2 (Homo sapiens, UniProt P53671); details: read-out: % Retention on Solid Support
T11 construct: purchased DiscoveRx KINOMEscan
Method in brief: as §1

MTOR = target: T12, MTOR (Homo sapiens, UniProt P42345); details: 1 µM i-CDK9; read-out: % Retention on Solid Support
T12 construct: purchased DiscoveRx KINOMEscan
Method in brief: as §1

AKT1 = target: T13, AKT1 (Homo sapiens, UniProt P31749); details: read-out: % Retention on Solid Support
T13 construct: purchased DiscoveRx KINOMEscan
T13 sequence (P31749 whole entry): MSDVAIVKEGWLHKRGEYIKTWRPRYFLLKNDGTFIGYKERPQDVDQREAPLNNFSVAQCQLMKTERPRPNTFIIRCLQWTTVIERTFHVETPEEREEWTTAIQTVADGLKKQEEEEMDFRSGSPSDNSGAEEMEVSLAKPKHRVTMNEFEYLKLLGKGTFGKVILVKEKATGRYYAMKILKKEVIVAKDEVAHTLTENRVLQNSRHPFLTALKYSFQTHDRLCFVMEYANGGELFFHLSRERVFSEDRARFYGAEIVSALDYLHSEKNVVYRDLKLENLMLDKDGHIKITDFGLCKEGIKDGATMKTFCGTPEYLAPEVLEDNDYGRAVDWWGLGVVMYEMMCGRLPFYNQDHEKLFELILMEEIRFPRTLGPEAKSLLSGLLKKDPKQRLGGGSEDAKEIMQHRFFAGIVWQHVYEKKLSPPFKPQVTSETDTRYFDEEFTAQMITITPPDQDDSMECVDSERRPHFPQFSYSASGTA
Method in brief: as §1

MKNK1 = target: T14, MKNK1 (Homo sapiens, UniProt Q9BUB5); details: read-out: % Retention on Solid Support
T14 construct: purchased DiscoveRx KINOMEscan
Method in brief: as §1

LCK = target: T15, LCK (Homo sapiens, UniProt P06239); details: read-out: % Retention on Solid Support
T15 construct: purchased DiscoveRx KINOMEscan
Method in brief: as §1

RIPK1 = target: T16, RIPK1 (Homo sapiens, UniProt Q13546); details: read-out: % Retention on Solid Support
T16 construct: purchased DiscoveRx KINOMEscan
Method in brief: as §1

[1] = target: T17, ABL1(M351T)-nonphosphorylated (Homo sapiens, UniProt P00519, M351T); details: 10 µM i-CDK9; read-out: % Retention on Solid Support
T17 construct: purchased DiscoveRx KINOMEscan
Method in brief: as §1

KIT(D816H) = target: T18, KIT(D816H) (Homo sapiens, UniProt P10721, D816H); details: 1 µM i-CDK9; read-out: % Retention on Solid Support
T18 construct: purchased DiscoveRx KINOMEscan
Method in brief: as §1

MYLK2 = target: T19, MYLK2 (Homo sapiens, UniProt Q9H1R3); details: read-out: % Retention on Solid Support
T19 construct: purchased DiscoveRx KINOMEscan
T19 sequence (Q9H1R3 whole entry): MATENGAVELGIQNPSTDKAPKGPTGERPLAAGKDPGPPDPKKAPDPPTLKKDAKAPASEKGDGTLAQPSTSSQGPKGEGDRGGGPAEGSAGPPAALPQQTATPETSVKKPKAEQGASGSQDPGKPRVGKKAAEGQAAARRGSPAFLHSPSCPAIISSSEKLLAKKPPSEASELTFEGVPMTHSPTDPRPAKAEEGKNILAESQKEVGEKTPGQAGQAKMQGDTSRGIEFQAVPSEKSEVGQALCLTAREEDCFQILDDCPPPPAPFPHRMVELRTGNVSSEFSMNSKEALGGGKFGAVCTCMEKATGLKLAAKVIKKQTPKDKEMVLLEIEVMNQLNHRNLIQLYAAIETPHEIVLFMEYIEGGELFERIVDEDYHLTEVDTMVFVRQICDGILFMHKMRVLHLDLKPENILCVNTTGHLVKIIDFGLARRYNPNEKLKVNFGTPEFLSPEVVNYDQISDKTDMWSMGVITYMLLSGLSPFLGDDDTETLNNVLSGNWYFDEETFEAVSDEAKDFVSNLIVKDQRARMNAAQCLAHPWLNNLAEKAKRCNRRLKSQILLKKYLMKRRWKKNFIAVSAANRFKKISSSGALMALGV
Method in brief: as §1

FLT1 = target: T20, FLT1 (Homo sapiens, UniProt P17948); details: read-out: % Retention on Solid Support
T20 construct: purchased DiscoveRx KINOMEscan
Method in brief: as §1

STK39 = target: T21, STK39 (Homo sapiens, UniProt Q9UEW8); details: read-out: % Retention on Solid Support
T21 construct: purchased DiscoveRx KINOMEscan
Method in brief: as §1

[2] = target: T22, RPS6KA5(Kin.Dom.1-N-terminal) (Homo sapiens, UniProt O75582); details: read-out: % Retention on Solid Support
T22 construct: RPS6KA5(Kin.Dom.1-N-terminal); purchased DiscoveRx KINOMEscan
Method in brief: as §1

CSF1R = target: T23, CSF1R (Homo sapiens, UniProt P07333); details: read-out: % Retention on Solid Support
T23 construct: purchased DiscoveRx KINOMEscan
Method in brief: as §1

BIKE = target: T24, BIKE (Homo sapiens, UniProt Q9NSY1); details: read-out: % Retention on Solid Support
T24 construct: purchased DiscoveRx KINOMEscan
T24 sequence (Q9NSY1 whole entry): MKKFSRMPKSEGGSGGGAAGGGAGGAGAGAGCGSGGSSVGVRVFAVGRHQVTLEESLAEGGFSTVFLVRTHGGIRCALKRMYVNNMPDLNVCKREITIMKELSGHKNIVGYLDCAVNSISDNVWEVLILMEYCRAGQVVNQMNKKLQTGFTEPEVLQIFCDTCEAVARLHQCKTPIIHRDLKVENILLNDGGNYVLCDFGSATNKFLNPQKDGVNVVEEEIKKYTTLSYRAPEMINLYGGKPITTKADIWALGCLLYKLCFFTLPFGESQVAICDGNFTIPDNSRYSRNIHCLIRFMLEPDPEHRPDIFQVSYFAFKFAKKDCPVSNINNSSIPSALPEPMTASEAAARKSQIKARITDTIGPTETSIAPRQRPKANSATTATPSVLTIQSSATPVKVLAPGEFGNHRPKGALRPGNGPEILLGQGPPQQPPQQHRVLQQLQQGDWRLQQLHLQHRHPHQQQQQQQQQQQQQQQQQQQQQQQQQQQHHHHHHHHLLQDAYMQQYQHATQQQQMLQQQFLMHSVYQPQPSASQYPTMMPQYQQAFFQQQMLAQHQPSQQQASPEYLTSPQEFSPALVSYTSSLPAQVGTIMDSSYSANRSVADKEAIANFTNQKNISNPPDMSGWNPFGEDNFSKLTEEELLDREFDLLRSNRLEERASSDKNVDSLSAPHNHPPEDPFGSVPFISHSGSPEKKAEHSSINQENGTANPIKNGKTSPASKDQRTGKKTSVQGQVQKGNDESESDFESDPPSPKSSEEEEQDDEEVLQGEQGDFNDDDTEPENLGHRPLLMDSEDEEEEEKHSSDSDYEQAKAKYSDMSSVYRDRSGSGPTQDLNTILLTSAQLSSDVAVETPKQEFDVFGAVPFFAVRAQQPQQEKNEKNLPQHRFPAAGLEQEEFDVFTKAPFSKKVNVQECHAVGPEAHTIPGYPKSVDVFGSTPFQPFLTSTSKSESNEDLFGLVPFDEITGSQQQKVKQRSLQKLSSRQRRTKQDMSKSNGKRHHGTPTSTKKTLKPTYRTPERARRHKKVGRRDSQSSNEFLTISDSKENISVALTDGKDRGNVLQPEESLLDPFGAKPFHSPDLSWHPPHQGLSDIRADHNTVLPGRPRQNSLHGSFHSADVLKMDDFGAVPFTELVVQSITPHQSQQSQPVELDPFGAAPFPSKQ
Method in brief: as §1

HIPK1 = target: T25, HIPK1 (Homo sapiens, UniProt Q86Z02); details: read-out: % Retention on Solid Support
T25 construct: purchased DiscoveRx KINOMEscan
Method in brief: as §1

EPHA2 = target: T26, EPHA2 (Homo sapiens, UniProt P29317); details: read-out: % Retention on Solid Support
T26 construct: purchased DiscoveRx KINOMEscan
T26 sequence (P29317 24-976): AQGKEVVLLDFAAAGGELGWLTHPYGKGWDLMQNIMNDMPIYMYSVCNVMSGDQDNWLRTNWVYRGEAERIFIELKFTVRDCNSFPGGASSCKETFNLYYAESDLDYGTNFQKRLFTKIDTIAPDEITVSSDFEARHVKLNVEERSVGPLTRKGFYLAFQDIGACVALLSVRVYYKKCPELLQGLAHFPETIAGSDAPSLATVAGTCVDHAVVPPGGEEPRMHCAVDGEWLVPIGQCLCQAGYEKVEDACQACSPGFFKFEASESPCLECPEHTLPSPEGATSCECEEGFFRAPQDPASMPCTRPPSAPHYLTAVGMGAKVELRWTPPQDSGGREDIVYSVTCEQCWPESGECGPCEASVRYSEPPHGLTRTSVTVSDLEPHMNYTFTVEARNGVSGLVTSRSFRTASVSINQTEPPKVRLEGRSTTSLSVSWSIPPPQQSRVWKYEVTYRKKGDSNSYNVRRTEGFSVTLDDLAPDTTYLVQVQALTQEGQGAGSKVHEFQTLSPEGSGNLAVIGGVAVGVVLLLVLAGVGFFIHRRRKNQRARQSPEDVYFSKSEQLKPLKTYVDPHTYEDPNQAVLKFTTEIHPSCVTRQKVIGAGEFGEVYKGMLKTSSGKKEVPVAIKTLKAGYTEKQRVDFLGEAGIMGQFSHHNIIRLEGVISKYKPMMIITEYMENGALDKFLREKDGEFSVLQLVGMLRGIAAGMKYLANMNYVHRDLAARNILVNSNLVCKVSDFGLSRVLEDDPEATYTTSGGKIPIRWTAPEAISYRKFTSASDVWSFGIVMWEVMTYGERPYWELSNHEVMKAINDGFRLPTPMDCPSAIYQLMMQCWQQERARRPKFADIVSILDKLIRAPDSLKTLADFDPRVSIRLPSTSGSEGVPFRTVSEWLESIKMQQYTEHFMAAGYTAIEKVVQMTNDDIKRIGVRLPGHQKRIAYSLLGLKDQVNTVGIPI
Method in brief: as §1

AKT2 = target: T27, AKT2 (Homo sapiens, UniProt P31751); details: read-out: % Retention on Solid Support
T27 construct: purchased DiscoveRx KINOMEscan
Method in brief: as §1

SNARK = target: T28, SNARK (Homo sapiens, UniProt Q9H093)
T28 construct: purchased DiscoveRx KINOMEscan
Method in brief: as §1

Question: `N[C@H]1CC[C@H](Nc2cc(-c3cccc(NCc4cccc(F)c4)n3)c(Cl)cn2)CC1` [i-CDK9, N2′-(trans-4-aminocyclohexyl)-5′-chloro-N6-(3-fluorobenzyl)-2,4′-bipyridine-2′,6-diamine] was tested. Which remaining binding at 1 µM (ACVR1B; 1 µM i-CDK9) did it give?
Answer: 69%

Question: What about the remaining binding at 10 µM (ACVR1B; 10 µM i-CDK9) of the same compound?
Answer: 100%

Question: And the remaining binding at 1 µM (MEK3; 1 µM i-CDK9)?
Answer: 99%

Question: And the remaining binding at 10 µM (MEK3; 10 µM i-CDK9)?
Answer: 85%

Question: And the remaining binding at 1 µM (ERK3; 1 µM i-CDK9)?
Answer: 94%

Question: And the remaining binding at 10 µM (ERK3; 10 µM i-CDK9)?
Answer: 94%

Question: And the remaining binding at 1 µM (RIPK2; 1 µM i-CDK9)?
Answer: 65%

Question: And the remaining binding at 10 µM (RIPK2; 10 µM i-CDK9)?
Answer: 77%

Question: And the remaining binding at 1 µM (MAK; 1 µM i-CDK9)?
Answer: 100%

Question: What about the remaining binding at 10 µM (MAK; 10 µM i-CDK9) of the same compound?
Answer: 30%

Question: What about the remaining binding at 1 µM (EPHB3; 1 µM i-CDK9) of the same compound?
Answer: 100%

Question: And the remaining binding at 10 µM (EPHB3; 10 µM i-CDK9)?
Answer: 95%

Question: What about the remaining binding at 1 µM (TYRO3; 1 µM i-CDK9) of the same compound?
Answer: 71%

Question: And the remaining binding at 10 µM (TYRO3; 10 µM i-CDK9)?
Answer: 100%

Question: And the “% Retention on Solid Support” value (IRAK4)?
Answer: 93%

Question: And the remaining binding at 1 µM (DMPK; 1 µM i-CDK9)?
Answer: 100%

Question: What about the remaining binding at 10 µM (DMPK; 10 µM i-CDK9) of the same compound?
Answer: 20%

Question: And the remaining binding at 1 µM (TAOK1; 1 µM i-CDK9)?
Answer: 51%

Question: What about the remaining binding at 10 µM (TAOK1; 10 µM i-CDK9) of the same compound?
Answer: 4%

Question: And the remaining binding at 1 µM (KIT(L576P); 1 µM i-CDK9)?
Answer: 91%

Question: And the remaining binding at 10 µM (KIT(L576P); 10 µM i-CDK9)?
Answer: 100%

Question: And the remaining binding at 1 µM (LIMK2; 1 µM i-CDK9)?
Answer: 100%

Question: And the remaining binding at 10 µM (LIMK2; 10 µM i-CDK9)?
Answer: 100%

Question: And the remaining binding at 1 µM (MTOR)?
Answer: 100%

Question: And the remaining binding at 1 µM (AKT1; 1 µM i-CDK9)?
Answer: 100%

Question: What about the remaining binding at 10 µM (AKT1; 10 µM i-CDK9) of the same compound?
Answer: 100%

Question: What about the remaining binding at 1 µM (MKNK1; 1 µM i-CDK9) of the same compound?
Answer: 100%

Question: What about the remaining binding at 10 µM (MKNK1; 10 µM i-CDK9) of the same compound?
Answer: 100%

Question: What about the remaining binding at 1 µM (LCK; 1 µM i-CDK9) of the same compound?
Answer: 100%

Question: And the remaining binding at 10 µM (LCK; 10 µM i-CDK9)?
Answer: 100%

Question: And the remaining binding at 1 µM (RIPK1; 1 µM i-CDK9)?
Answer: 100%

Question: What about the remaining binding at 10 µM (RIPK1; 10 µM i-CDK9) of the same compound?
Answer: 100%

Question: And the remaining binding at 10 µM [1]?
Answer: 100%

Question: What about the remaining binding at 1 µM (KIT(D816H)) of the same compound?
Answer: 100%

Question: What about the remaining binding at 1 µM (MYLK2; 1 µM i-CDK9) of the same compound?
Answer: 100%

Question: What about the remaining binding at 10 µM (MYLK2; 10 µM i-CDK9) of the same compound?
Answer: 88%

Question: And the remaining binding at 1 µM (FLT1; 1 µM i-CDK9)?
Answer: 100%

Question: What about the remaining binding at 10 µM (FLT1; 10 µM i-CDK9) of the same compound?
Answer: 81%

Question: What about the remaining binding at 1 µM (STK39; 1 µM i-CDK9) of the same compound?
Answer: 100%

Question: And the remaining binding at 10 µM (STK39; 10 µM i-CDK9)?
Answer: 77%

Question: And the remaining binding at 1 µM ([2]; 1 µM i-CDK9)?
Answer: 79%

Question: And the remaining binding at 10 µM ([2]; 10 µM i-CDK9)?
Answer: 100%

Question: What about the remaining binding at 1 µM (CSF1R; 1 µM i-CDK9) of the same compound?
Answer: 59%

Question: And the remaining binding at 10 µM (CSF1R; 10 µM i-CDK9)?
Answer: 100%

Question: And the remaining binding at 1 µM (BIKE; 1 µM i-CDK9)?
Answer: 100%

Question: What about the remaining binding at 10 µM (BIKE; 10 µM i-CDK9) of the same compound?
Answer: 63%

Question: What about the remaining binding at 1 µM (HIPK1; 1 µM i-CDK9) of the same compound?
Answer: 44%

Question: And the remaining binding at 10 µM (HIPK1; 10 µM i-CDK9)?
Answer: 29%

Question: What about the remaining binding at 1 µM (EPHA2; 1 µM i-CDK9) of the same compound?
Answer: 100%

Question: And the remaining binding at 10 µM (EPHA2; 10 µM i-CDK9)?
Answer: 100%

Question: What about the remaining binding at 1 µM (AKT2; 1 µM i-CDK9) of the same compound?
Answer: 89%

Question: What about the remaining binding at 10 µM (AKT2; 10 µM i-CDK9) of the same compound?
Answer: 77%

Question: And the “% Retention on Solid Support” value (SNARK; 1 µM i-CDK9)?
Answer: 100%

Question: What about the “% Retention on Solid Support” value (SNARK; 10 µM i-CDK9) of the same compound?
Answer: 87%
